# Read-outs that look alike come from different tables or passages of the source. Marks after values point to notes of the source that are not given here.
# Key:
# S. aureus DNA gyrase = S. aureus DNA gyrase (Staphylococcus aureus, UniProt P20831); assay: Inhibition of DNA gyrase, biochemical assay (Inspiralis)
# TopoIV from S. aureus = TopoIV from S. aureus (Staphylococcus aureus, UniProt P0C1U9); assay: biochemical; assay type: biochemical
# [1] = test system: S. aureus strain isolated from a cystic fibrosis patient; assay: MIC, CLSI broth microdilution, CF isolate; assay type: cell-based; conditions: Staphylococcus aureus, read-out: MIC CF isolate
# USA300 isolate of MRSA = assay: MIC, CLSI broth microdilution, USA300 MRSA; assay type: cell-based; conditions: Staphylococcus aureus, read-out: MIC USA300
# S. aureus ATCC 29213 [2] = assay: MIC, CLSI broth microdilution, S. aureus ATCC 29213; assay type: cell-based; conditions: Staphylococcus aureus
# S. aureus ATCC 29213 [3] = assay: microbe, parasite or virus in culture; assay type: cell-based; conditions: Staphylococcus aureus, ATCC29213, read-out: S. aureus ATCC 29213 MIC (n = 2)
# Experimental: In order to determine the spontaneous mutation frequency of investigational agents (Table 4), the MIC was first determined using the agar dilution method as recommended by the Clinical and Laboratory Standards Institute.
# Triplicate independent inocula of S. aureus ATCC 29213 were evaluated.
# S. aureus ATCC 29213 [4] = assay type: cell-based, Staphylococcus aureus
# hERG = hERG (Homo sapiens, UniProt Q12809); assay: hERG IC50, IonWorks Barracuda (Charles River)
# Source text: The design of these isomannide-detived NBTIs focused on enhanced polarity and modulation of basicity through the two electronegative oxygen atoms in the linker.
# [5] = test system: Mycobacterium avium complex (ATCC 700891 MAC 101); assay: Ex vivo efficacy against M. avium; assay type: cell-based; conditions: concentration for >90% inhibition
# Experimental: (§1) Ex vivo efficacy was determined by inhibition of Mycobacterium avium complex (ATCC 700891 MAC 101), and Mycobacterium abscessus (ATCC 19977). Cytotoxicity tests were carried out against three human cell lines, THP-1 (ATCC TIB-202), HepG2 (ATCC HB-8065), and HeLa (ATCC CCL-2). IC50 values were calculated from dose response curves to determine cytotoxicity of test compounds.
# M. tuberculosis H37Rv = assay: MIC, microbroth dilution, M. tuberculosis H37Rv; assay type: cell-based; conditions: Mycobacterium tuberculosis
# M. abscessus 19977 = assay: MIC, microbroth dilution, M. abscessus; assay type: cell-based, Mycobacterium abscessus; conditions: Mycobacteroides abscessus
# Experimental: (§2) MICs were determined against the NTM strains […] avium ATCC 700891 MAC101 and M. abscessus 19977 using the microbroth dilution method. MIC was determined using optical density and a calorimetric growth indicator. For optical density ([…]), the MIC is considered the first concentration to inhibit growth when compared to an untreated growth control. A calorimetric growth indicator (i.e. Alamar Blue) was also added to confirm MIC value by observing color change from […], indicating no active growth.
# M. avium 700891 = assay: MIC, microbroth dilution, M. avium; assay type: cell-based; conditions: Mycobacterium avium
# Experimental: as §2
# [6] = test system: M tuberculosis H37Rv in THP-1 macrophages; assay: Ex vivo efficacy against M. tuberculosis in THP-1 macrophages; assay type: cell-based, Mycobacterium tuberculosis
# [7] = test system: Mycobacterium abscessus (ATCC 19977); assay: Ex vivo efficacy against M. abscessus; assay type: cell-based; conditions: concentration for >90% inhibition
# Experimental: as §1
# S. aureus ATCC 29213 [8] = conditions: previously published data for 27 and ciprofloxacin; cited from earlier work
# [9] = test system: Escherichia coli ATCC 25922; conditions: previously published data for 27 and ciprofloxacin; cited from earlier work
# [10] = test system: Streptococcus pneumoniae LSI-4234; conditions: penicillin-susceptible strain; previously published data for 27 and ciprofloxacin; cited from earlier work
# [11] = test system: Enterococcus faecium DRL-4193; conditions: vancomycin-susceptible strain; previously published data for 27 and ciprofloxacin; cited from earlier work
# [12] = test system: Enterococcus faecalis ATCC 29212; conditions: previously published data for 27 and ciprofloxacin; cited from earlier work
# [13] = test system: Klebsiella pneumoniae LSI-2999; conditions: previously published data for 27 and ciprofloxacin; cited from earlier work
# [14] = test system: Acinetobacter baumannii LSI-2957; conditions: previously published data for 27 and ciprofloxacin; cited from earlier work
# [15] = test system: Streptococcus pyogenes LSI-1235; conditions: previously published data for 27 and ciprofloxacin; cited from earlier work
# [16] = test system: Enterococcus faecium LSI-3340; conditions: vancomycin-resistant strain; previously published data for 27 and ciprofloxacin; cited from earlier work
# [17] = test system: Pseudomonas aeruginosa LSI-2946; conditions: previously published data for 27 and ciprofloxacin; cited from earlier work
# [18] = test system: Streptococcus pneumoniae LSI-4246; conditions: penicillin-resistant strain; previously published data for 27 and ciprofloxacin; cited from earlier work
# MRSADRL-3161 = conditions: previously published data for 27 and ciprofloxacin; cited from earlier work
# [19] = test system: Enterobacter cloacae LSI-2943; conditions: previously published data for 27 and ciprofloxacin; cited from earlier work
# [20] = ATCC29213, read-out: MIC ATCC 29213
# [21] = CLSI broth microdilution, ciprofloxacin-resistant MRSA
# [22] = ATCC29213, CLSI broth microdilution, triplicate, read-out: MIC ATCC 29213
# [23] = S. aureus DNA gyrase, Inspiralis, Ltd., read-out: Gyrase IC50
# [24] = S. aureus TopoIV, read-out: TopoIV IC50
# TopoIV from S. aureus, sequence (P0C1S7 whole entry): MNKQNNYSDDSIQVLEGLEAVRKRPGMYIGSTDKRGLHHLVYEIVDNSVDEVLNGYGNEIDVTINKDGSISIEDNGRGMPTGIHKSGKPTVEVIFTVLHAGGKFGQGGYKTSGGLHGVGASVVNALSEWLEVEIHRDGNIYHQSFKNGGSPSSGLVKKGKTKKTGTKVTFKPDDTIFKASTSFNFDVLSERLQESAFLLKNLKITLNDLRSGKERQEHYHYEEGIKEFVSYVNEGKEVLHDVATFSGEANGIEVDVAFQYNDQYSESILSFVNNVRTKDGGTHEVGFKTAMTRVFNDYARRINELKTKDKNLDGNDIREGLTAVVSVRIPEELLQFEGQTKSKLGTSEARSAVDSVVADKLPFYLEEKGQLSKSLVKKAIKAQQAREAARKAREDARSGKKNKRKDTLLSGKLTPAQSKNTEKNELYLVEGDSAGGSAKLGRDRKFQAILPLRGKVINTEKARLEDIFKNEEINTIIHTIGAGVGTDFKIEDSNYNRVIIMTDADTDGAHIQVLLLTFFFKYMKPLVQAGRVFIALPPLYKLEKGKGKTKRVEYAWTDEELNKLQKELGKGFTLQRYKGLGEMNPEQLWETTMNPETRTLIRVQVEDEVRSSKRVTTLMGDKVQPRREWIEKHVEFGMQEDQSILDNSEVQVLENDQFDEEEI
# TopoIV from S. aureus, sequence (P0C1U9 whole entry): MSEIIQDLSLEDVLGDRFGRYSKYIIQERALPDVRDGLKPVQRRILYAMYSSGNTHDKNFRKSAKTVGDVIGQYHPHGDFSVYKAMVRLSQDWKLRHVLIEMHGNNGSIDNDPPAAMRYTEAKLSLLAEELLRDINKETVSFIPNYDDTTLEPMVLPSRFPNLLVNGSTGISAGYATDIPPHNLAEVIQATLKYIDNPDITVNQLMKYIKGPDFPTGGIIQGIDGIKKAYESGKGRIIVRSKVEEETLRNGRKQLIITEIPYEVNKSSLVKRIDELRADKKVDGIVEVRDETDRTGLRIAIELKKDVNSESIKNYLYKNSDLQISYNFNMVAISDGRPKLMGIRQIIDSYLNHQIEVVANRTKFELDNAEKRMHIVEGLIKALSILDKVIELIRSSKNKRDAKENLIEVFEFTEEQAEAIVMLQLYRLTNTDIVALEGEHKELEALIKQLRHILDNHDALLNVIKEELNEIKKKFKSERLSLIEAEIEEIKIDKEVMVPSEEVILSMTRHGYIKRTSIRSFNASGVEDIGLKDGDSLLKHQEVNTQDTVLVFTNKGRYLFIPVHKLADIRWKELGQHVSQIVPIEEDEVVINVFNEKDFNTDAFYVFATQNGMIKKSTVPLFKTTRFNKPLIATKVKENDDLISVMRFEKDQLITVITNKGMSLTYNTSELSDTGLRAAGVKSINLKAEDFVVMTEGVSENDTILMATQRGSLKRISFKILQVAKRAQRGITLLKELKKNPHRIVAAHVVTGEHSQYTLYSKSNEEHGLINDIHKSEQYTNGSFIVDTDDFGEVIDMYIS
# S. aureus DNA gyrase, sequence (P0A0K8 whole entry): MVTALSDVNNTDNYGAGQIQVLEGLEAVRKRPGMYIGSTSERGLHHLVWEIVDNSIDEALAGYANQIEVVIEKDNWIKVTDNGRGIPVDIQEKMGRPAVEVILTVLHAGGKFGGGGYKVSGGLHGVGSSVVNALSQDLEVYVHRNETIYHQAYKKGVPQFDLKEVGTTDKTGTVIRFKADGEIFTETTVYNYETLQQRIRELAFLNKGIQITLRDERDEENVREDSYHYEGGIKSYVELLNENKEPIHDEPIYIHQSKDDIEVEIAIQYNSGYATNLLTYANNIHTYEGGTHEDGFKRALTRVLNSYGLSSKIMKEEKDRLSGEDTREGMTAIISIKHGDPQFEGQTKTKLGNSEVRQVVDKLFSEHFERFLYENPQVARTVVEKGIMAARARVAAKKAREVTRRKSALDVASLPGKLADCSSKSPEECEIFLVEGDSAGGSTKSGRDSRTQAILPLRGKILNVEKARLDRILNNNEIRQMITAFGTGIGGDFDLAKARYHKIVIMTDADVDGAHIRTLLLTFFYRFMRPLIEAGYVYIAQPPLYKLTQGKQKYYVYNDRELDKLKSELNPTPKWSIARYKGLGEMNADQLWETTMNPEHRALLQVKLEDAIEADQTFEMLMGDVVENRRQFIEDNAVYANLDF
# S. aureus DNA gyrase, sequence (P20831 whole entry): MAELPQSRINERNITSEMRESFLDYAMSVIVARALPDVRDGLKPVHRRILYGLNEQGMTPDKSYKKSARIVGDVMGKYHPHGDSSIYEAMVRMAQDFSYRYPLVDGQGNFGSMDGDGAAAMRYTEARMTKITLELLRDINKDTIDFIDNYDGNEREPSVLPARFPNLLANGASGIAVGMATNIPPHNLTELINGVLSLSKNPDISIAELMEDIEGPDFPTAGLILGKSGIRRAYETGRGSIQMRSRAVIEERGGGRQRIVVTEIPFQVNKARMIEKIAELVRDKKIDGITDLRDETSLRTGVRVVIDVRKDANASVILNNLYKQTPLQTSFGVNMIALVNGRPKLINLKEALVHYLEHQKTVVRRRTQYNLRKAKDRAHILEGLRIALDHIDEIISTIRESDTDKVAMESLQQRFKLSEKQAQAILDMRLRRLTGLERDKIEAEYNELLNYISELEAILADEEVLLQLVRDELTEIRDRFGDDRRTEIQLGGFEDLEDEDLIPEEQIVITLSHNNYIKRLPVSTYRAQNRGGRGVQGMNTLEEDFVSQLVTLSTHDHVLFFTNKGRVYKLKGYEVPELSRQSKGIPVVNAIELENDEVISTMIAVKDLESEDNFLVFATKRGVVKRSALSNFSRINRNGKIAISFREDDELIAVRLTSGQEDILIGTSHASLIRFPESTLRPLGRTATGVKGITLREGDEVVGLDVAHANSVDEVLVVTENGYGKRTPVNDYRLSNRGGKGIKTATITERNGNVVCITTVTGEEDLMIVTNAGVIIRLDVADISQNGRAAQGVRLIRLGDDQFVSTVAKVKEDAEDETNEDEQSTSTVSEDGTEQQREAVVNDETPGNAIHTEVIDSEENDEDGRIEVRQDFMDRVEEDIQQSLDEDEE
# hERG, sequence (Q12809 whole entry): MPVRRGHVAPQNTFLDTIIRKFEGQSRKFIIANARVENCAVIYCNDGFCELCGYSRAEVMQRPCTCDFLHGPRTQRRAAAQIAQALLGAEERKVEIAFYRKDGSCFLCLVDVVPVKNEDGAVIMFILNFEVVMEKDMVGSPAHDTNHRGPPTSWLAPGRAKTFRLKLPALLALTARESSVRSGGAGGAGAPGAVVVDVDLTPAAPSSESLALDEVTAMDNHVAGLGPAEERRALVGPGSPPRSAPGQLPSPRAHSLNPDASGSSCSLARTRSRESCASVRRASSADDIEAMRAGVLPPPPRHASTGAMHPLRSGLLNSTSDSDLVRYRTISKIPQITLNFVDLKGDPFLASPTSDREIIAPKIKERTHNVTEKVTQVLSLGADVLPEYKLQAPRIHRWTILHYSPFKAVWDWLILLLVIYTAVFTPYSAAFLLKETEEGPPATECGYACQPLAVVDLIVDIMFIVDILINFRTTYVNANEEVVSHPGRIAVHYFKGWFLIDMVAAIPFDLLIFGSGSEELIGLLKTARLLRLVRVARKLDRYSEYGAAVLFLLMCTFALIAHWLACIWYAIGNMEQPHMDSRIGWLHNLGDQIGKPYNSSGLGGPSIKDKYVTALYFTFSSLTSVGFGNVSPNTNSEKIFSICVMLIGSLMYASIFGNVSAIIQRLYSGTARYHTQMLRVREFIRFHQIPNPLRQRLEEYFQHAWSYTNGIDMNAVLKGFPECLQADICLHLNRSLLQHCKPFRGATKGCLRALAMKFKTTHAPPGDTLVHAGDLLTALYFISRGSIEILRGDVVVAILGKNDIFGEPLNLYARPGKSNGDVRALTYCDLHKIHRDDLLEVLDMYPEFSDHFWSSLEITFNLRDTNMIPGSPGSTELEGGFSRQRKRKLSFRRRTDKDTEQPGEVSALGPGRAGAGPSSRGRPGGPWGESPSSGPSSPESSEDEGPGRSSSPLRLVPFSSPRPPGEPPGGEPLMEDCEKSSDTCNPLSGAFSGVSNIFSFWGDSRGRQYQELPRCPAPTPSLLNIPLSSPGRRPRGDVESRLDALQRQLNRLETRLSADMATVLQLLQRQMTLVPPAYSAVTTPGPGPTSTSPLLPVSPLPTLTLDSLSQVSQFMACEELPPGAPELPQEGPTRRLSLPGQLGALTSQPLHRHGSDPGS
smiles,measurement,setting,value
"COc1ccc2ncc(F)c(CC[C@@]3(O)CO[C@@H]4[C@@H](NCc5ccc6c(n5)NC(=O)CO6)CO[C@@H]43)c2n1 [Compound 7, 6-((((3S,3aR,6R,6aS)-6-(2-(3-fluoro-6-methoxy-1,5-tnaphthyriditn-4-yl)ethyl)-6-hydroxyhexahydrofuro[3,2-b]furan-3-yl)amino)methyl)-2H-pyrido[3,2-b][1,4]oxazin-3(4H)-one]",IC50,S. aureus DNA gyrase,540 nM
same,TopoIV IC50,TopoIV from S. aureus,No activity
same,MIC,[1],2 µg/mL
same,MIC,USA300 isolate of MRSA,1 to 2 µg/mL
same,MIC,S. aureus ATCC 29213 [2]; [20],2 µg/mL
"COc1ccc2nccc(CC[C@@]3(O)CO[C@@H]4[C@@H](NCc5ccc6c(c5)OCCO6)CO[C@@H]43)c2c1 [Compound 21, (3R,3aS,6S, 6aR)-6-(((2,3-dihydrobenzo[b][1,4]dioxin-6-yl)methyl)amino)-3-(2-(6-methoxyquinalin-4-yl)ethyl)hexahydrofuro[3,2-b]furan-3-ol]",MIC,[1]; CLSI broth microdilution,16 µg/mL
same,MIC,USA300 isolate of MRSA; [21],16 µg/mL
same,MIC,S. aureus ATCC 29213 [2]; [22],16 to 32 µg/mL
"COc1ccc2nccc(CC[C@@]3(O)CO[C@@H]4[C@@H](NCc5ccccc5)CO[C@@H]43)c2c1 [Compound 22, (3R,3aS,6S,6aR)-6-(benzylamino)-3-(2-(6-methoxyquinolin-4-yl)ethyl)hexahydrofuro[3,2-b]furan-3-ol]",MIC,[1]; CLSI broth microdilution,> 8 µg/mL
same,MIC,USA300 isolate of MRSA; [21],> 8 µg/mL
same,MIC,S. aureus ATCC 29213 [2]; [22],> 8 µg/mL
"COc1ccc2nccc(CC[C@@]3(O)CO[C@@H]4[C@@H](NCc5ccc(C)cc5)CO[C@@H]43)c2c1 [Compound 23, (3R,3aS,6S,6aR)-3-(2-(6-methoxyquinolin-4-yl)ethyl)-6-((4-methylbenzyl)amino)hexahydrofuro[3,2-h]furan-3-ol]",MIC,[1]; CLSI broth microdilution,> 8 µg/mL
same,MIC,USA300 isolate of MRSA; [21],> 8 µg/mL
same,MIC,S. aureus ATCC 29213 [2]; [22],> 8 µg/mL
"COc1ccc2ncc(F)c(CC[C@@]3(O)CO[C@@H]4[C@@H](NCc5ccc6c(c5)OCCO6)CO[C@@H]43)c2n1 [Compound 24, (3R,3aS,6S, 6aR)-6-(((2,3-dihydrobenzo[b][1,4]dioxin-6-yl)methyl)amino)-3-(2-(3-fluoro-6-methoxy-1,5-naphthyridin-4-yl)ethyl)hexahydrofuro[3,2-b]furan-3-ol]",IC50,S. aureus DNA gyrase,200 nM
same,MIC,S. aureus ATCC 29213 [3],0.5 µg/mL
same,IC50,TopoIV from S. aureus,2600 nM
same,TopoIV/gyrase IC50 ratio,TopoIV from S. aureus,13
same,improvement of TopoIV/gyrase IC50 ratio as compared to dioxane 27,TopoIV from S. aureus,~2 fold
same,Spontaneous mutation frequency (8X MIC),S. aureus ATCC 29213 [4],"1.35 × 10^−9 (mean, n = 2)"
same,Spontaneous mutation frequency (16X MIC),S. aureus ATCC 29213 [4],"4.49 × 10^−10 (mean, n = 2)"
same,MIC,[1],1 µg/mL
same,hERG IC50 higher than 31 and 32,hERG; 24 versus cyclohexane-linked 31 and 32,> 8 fold
same,MIC,USA300 isolate of MRSA,1 µg/mL
same,MIC,S. aureus ATCC 29213 [2]; [20],0.5 to 1 µg/mL
"COc1ccc2ncc(F)c(CC[C@@]3(O)CO[C@@H]4[C@@H](NCc5ccc(C)cc5)CO[C@@H]43)c2n1 [Compound 25, (3R,3aS,6S,6aR)-3-(2-(3-fluora-6-methoxy-1,5-naphthyridin-4-yl)ethyl)-6-((4-methyllbenzyl)amino)hexahydrofuro[3,2-b]furan-3-ol]",Ex vivo efficacy M. avium (>90% inhibition),[5],>128 µg/mL
same,MIC,M. tuberculosis H37Rv,8 µg/mL
same,MIC,M. abscessus 19977,8 µg/mL
same,MIC,M. avium 700891,16 µg/mL
same,IC50,S. aureus DNA gyrase; [23],180 nM
same,IC50,TopoIV from S. aureus; [24],7500 nM
same,TopoIV/gyrase IC50 ratio,TopoIV from S. aureus; S. aureus enzymes,42
same,M. tuberculosis ex vivo efficacy (% inhibition at MIC),[6],80%
same,MIC,[1]; CLSI broth microdilution,2 µg/mL
same,IC50,"hERG; read-out: hERG IC50, IonWorks Barracuda",4200 nM
same,MIC,USA300 isolate of MRSA; [21],2 µg/mL
same,Ex vivo efficacy M. abscessus (>90% inhibition),[7],>128 µg/mL
same,MIC,S. aureus ATCC 29213 [2]; [22],1 to 2 µg/mL
"COc1ccc2ncc(F)c(CC[C@@]3(O)CO[C@@H]4[C@@H](NCc5ccc(Cl)c(Cl)c5)CO[C@@H]43)c2n1 [Compound 26, (3R,3aS,6S,6aR)-6-((3,4-dichlorobenzyl)amino)-3-(2-(3-fluoro-6-methoxy-1,5-napkthyridin-4-yl)ethyl)hexahydrofuro[3,2-b]-furan-3-ol]",Ex vivo efficacy M. avium (>90% inhibition),[5],>128 µg/mL
same,MIC,M. tuberculosis H37Rv,2 µg/mL
same,MIC,M. abscessus 19977,8 µg/mL
same,MIC,M. avium 700891,1 µg/mL
same,IC50,S. aureus DNA gyrase; [23],200 nM
same,IC50,TopoIV from S. aureus; [24],2900 nM
same,M. tuberculosis ex vivo efficacy (% inhibition at MIC),[6],90%
same,MIC,[1]; CLSI broth microdilution,0.5 µg/mL
same,MIC,USA300 isolate of MRSA; [21],0.5 µg/mL
same,Ex vivo efficacy M. abscessus (>90% inhibition),[7],32 µg/mL
same,MIC,S. aureus ATCC 29213 [2]; [22],0.25 to 0.5 µg/mL
COc1ccc2ncc(F)c(CCC3OCC(NCc4ccc5c(c4)OCCO5)CO3)c2n1 (stereo not shown) [Compound 27],MIC S. aureus ATCC 29213 (n = 3),S. aureus ATCC 29213 [8],≤0.06^b μg/mL
same,MIC Escherichia coli ATCC 25922 (n = 2),[9],16 µg/mL
same,IC50,S. aureus DNA gyrase; [23],30 nM
same,MIC Streptococcus pneumoniae LSI-4234,[10],0.25 µg/mL
same,MIC Enterococcus faecium DRL-4193,[11],0.12^f μg/mL
same,MIC Enterococcus faecalis ATCC 29212,[12],0.5 µg/mL
same,MIC Klebsiella pneumoniae LSI-2999,[13],>64 µg/mL
same,MIC Acinetobacter baumannii LSI-2957,[14],2 µg/mL
same,IC50,TopoIV from S. aureus; [24],1000 nM
same,TopoIV/gyrase IC50 ratio,TopoIV from S. aureus; S. aureus enzymes,33
same,MIC Streptococcus pyogenes LSI-1235,[15],≤0.06 µg/mL
same,MIC,[1]; CLSI broth microdilution,0.25 µg/mL
same,IC50,hERG,8000 nM
same,MIC,USA300 isolate of MRSA; [21],0.125 to 0.25 µg/mL
same,MIC Enterococcus faecium LSI-3340,[16],0.12 µg/mL
same,MIC Pseudomonas aeruginosa LSI-2946,[17],4 µg/mL
same,MIC Streptococcus pneumoniae LSI-4246,[18],≤0.06 µg/mL
same,MIC,S. aureus ATCC 29213 [2]; [22],≤ 0.25 µg/mL
same,MIC MRSADRL-3161,MRSADRL-3161,≤0.06 µg/mL
same,MIC Enterobacter cloacae LSI-2943,[19],32 µg/mL
O=C(O)c1cn(C2CC2)c2cc(N3CCNCC3)c(F)cc2c1=O [ciprofloxacin],MIC Escherichia coli ATCC 25922 (n = 2),[9],≤0.06 µg/mL
same,MIC Enterococcus faecium DRL-4193,[11],0.25 µg/mL
same,MIC Enterococcus faecalis ATCC 29212,[12],0.5 µg/mL
same,MIC Klebsiella pneumoniae LSI-2999,[13],0.25 µg/mL
same,MIC Acinetobacter baumannii LSI-2957,[14],0.25 µg/mL
same,MIC Streptococcus pyogenes LSI-1235,[15],0.25 µg/mL
same,MIC Pseudomonas aeruginosa LSI-2946,[17],0.5 µg/mL
same,MIC Streptococcus pneumoniae LSI-4246,[18],0.5 µg/mL
"CN[C@H](CC(C)C)C(=O)N[C@H]1C(=O)N[C@@H](CC(N)=O)C(=O)N[C@H]2C(=O)N[C@H]3C(=O)N[C@H](C(=O)N[C@H](C(=O)O)c4cc(O)cc(O)c4-c4cc3ccc4O)[C@H](O)c3ccc(c(Cl)c3)Oc3cc2cc(c3O[C@@H]2O[C@H](CO)[C@@H](O)[C@H](O)[C@H]2O[C@H]2C[C@](C)(N)[C@H](O)[C@H](C)O2)Oc2ccc(cc2Cl)[C@H]1O [vancomycin, reference compound]",MIC,[1],1 to 2 µg/mL
same,MIC,USA300 isolate of MRSA,1 to 2 µg/mL
